In ChEMBL document CHEMBL4359852, “Design, synthesis and biological evaluation of novel 5-(piperazin-1-yl)quinolin-2(1H)-one derivatives as potential chitin synthase inhibitors and antifungal agents” (Eur J Med Chem, 2019):
Converted amounts (≈) assume the structure as drawn.

How the values were obtained:
Aspergillus flavus = assay: Antifungal activity against Aspergillus flavus ATCC 16870 assessed as reduction in fungal cell growth incubated for 48 hrs by two-fold serial dilution method; format: functional; conditions: ATCC 16870, 48 h
Candida albicans = assay: Antifungal activity against Candida albicans ATCC 76615 assessed as reduction in fungal cell growth incubated for 48 hrs by two-fold serial dilution method; format: functional; conditions: ATCC 76615, 48 h
Staphylococcus aureus [1] = assay: Antibacterial activity against methicillin resistant Staphylococcus aureus N 315 assessed as reduction in bacterial cell growth incubated for overnight by two-fold serial dilution method; format: functional
Saccharomyces cerevisiae = assay: Inhibition of Saccharomyces cerevisiae CGMCC 2.145 chitin synthase using GlcNAc and UDP-GlcNAc as substrate at 300 ug/ml incubated for 60 mins by microplate reader analysis relative to control
Proteus vulgaris = assay: Antibacterial activity against Bacillus proteus ATCC 8427 assessed as reduction in bacterial cell growth incubated for overnight by two-fold serial dilution method; format: functional
[2] = Inhibition of Saccharomyces cerevisiae CGMCC 2.145 chitin synthase using GlcNAc and UDP-GlcNAc as substrate incubated for 60 mins by microplate reader analysis
Staphylococcus aureus [3] = assay: Antibacterial activity against Staphylococcus aureus ATCC 25923 assessed as reduction in bacterial cell growth incubated for overnight by two-fold serial dilution method; format: functional
Cryptococcus neoformans = assay: Antifungal activity against Cryptococcus neoformans ATCC 32719 assessed as reduction in fungal cell growth incubated for 48 hrs by two-fold serial dilution method; format: functional; conditions: ATCC 32719, 48 h
Bacillus subtilis = assay: Antibacterial activity against Bacillus subtilis ATCC 6633 assessed as reduction in bacterial cell growth incubated for overnight by two-fold serial dilution method; format: functional
Escherichia coli = assay: Antibacterial activity against Escherichia coli JM109 assessed as reduction in bacterial cell growth incubated for overnight by two-fold serial dilution method; format: functional
Pseudomonas aeruginosa = assay: Antibacterial activity against Pseudomonas aeruginosa ATCC 9027 assessed as reduction in bacterial cell growth incubated for overnight by two-fold serial dilution method; format: functional

SMILES | MIC (Aspergillus flavus) | MIC (Candida albicans) | MIC (Staphylococcus aureus [1]) | inhibition (Saccharomyces cerevisiae) | MIC (Proteus vulgaris) | IC50 [2] | MIC (Staphylococcus aureus [3]) | MIC (Cryptococcus neoformans) | MIC (Bacillus subtilis) | MIC (Escherichia coli) | MIC (Pseudomonas aeruginosa)
Cl.O=C1CCc2c(cccc2N2CCN(CC(O)CNc3ccccc3)CC2)N1 (racemic) | 128 µg/mL | 64 µg/mL | 128 µg/mL | 62.7% | 128 µg/mL | 150 µM | 128 µg/mL | 128 µg/mL | 128 µg/mL | 256 µg/mL | 256 µg/mL
Cl.O=C1CCc2c(cccc2N2CCN(CC(O)CNc3ccc(Cl)cc3)CC2)N1 (racemic) | 256 µg/mL | 32 µg/mL | 64 µg/mL | 59.3% | 128 µg/mL | 360 µM | 64 µg/mL | 256 µg/mL | 64 µg/mL | 128 µg/mL | 128 µg/mL
CCCCNC[C@H](O)CN1CCN(c2cccc3c2CCC(=O)N3)CC1.Cl | 512 µg/mL | 64 µg/mL | 256 µg/mL |  | 256 µg/mL | 340 µM | 256 µg/mL | 256 µg/mL | 512 µg/mL | 128 µg/mL | 128 µg/mL
COc1ccc(NCC(O)CN2CCN(c3cccc4c3CCC(=O)N4)CC2)cc1.Cl (racemic) | 128 µg/mL | 32 µg/mL | 128 µg/mL | 84.9% | 256 µg/mL | 100 µM | 64 µg/mL | 128 µg/mL | 128 µg/mL | 64 µg/mL | 128 µg/mL
Cl.O=C1CCc2c(cccc2N2CCN(CC(O)CNc3ccccc3Cl)CC2)N1 (racemic) | 128 µg/mL | 32 µg/mL | 128 µg/mL | 52.4% | 64 µg/mL | 470 µM | 64 µg/mL | 512 µg/mL | 128 µg/mL | 128 µg/mL | 256 µg/mL
Cl.O=C1CCc2c(cccc2N2CCN(CC(O)CNc3ccc(Br)cc3)CC2)N1 (racemic) | 64 µg/mL | 64 µg/mL | 128 µg/mL | 55.4% | 128 µg/mL | 380 µM | 64 µg/mL | 256 µg/mL | 64 µg/mL | 256 µg/mL | 256 µg/mL
Cl.O=C1CCc2c(cccc2N2CCN(C[C@@H](O)CNc3ccc(Br)cc3)CC2)N1 | 128 µg/mL | 64 µg/mL | 128 µg/mL |  | 128 µg/mL | 350 µM | 64 µg/mL | 128 µg/mL | 64 µg/mL | 256 µg/mL | 128 µg/mL
CCCCNC[C@@H](O)CN1CCN(c2cccc3c2CCC(=O)N3)CC1.Cl | 256 µg/mL | 128 µg/mL | 256 µg/mL |  | 256 µg/mL | 310 µM | 256 µg/mL | 128 µg/mL | 256 µg/mL | 256 µg/mL | 256 µg/mL
NC(=O)OC[C@H](O)[C@@H](O)[C@H](N)C(=O)N[C@H](C(=O)O)[C@H]1O[C@@H](n2cc(CO)c(=O)[nH]c2=O)[C@H](O)[C@@H]1O [POLYOXIN B] | 32 µg/mL (≈ 63.1 µM) | 32 µg/mL (≈ 63.1 µM) |  | 85.1% |  | 180 µM |  | 8 µg/mL (≈ 15.8 µM) |  |  | 
Cl.O=C1CCc2c(cccc2N2CCN(CC(O)Cn3ccnc3)CC2)N1 (racemic) | 256 µg/mL | 64 µg/mL | 128 µg/mL | 53.3% | 128 µg/mL | 470 µM | 64 µg/mL | 256 µg/mL | 64 µg/mL | 128 µg/mL | 128 µg/mL
CCCCNCC(O)CN1CCN(c2cccc3c2CCC(=O)N3)CC1.Cl (racemic) | 256 µg/mL | 64 µg/mL | 128 µg/mL | 63.7% | 256 µg/mL | 370 µM | 256 µg/mL | 256 µg/mL | 256 µg/mL | 256 µg/mL | 256 µg/mL
COc1ccc(NC[C@H](O)CN2CCN(c3cccc4c3CCC(=O)N4)CC2)cc1.Cl | 128 µg/mL | 32 µg/mL | 128 µg/mL |  | 256 µg/mL | 120 µM | 64 µg/mL | 256 µg/mL | 256 µg/mL | 32 µg/mL | 128 µg/mL
Cl.O=C1CCc2c(cccc2N2CCN(C[C@@H](O)CNc3ccc(Cl)cc3)CC2)N1 | 128 µg/mL | 32 µg/mL | 64 µg/mL |  | 128 µg/mL | 360 µM | 64 µg/mL | 128 µg/mL | 64 µg/mL | 128 µg/mL | 256 µg/mL
Cl.O=C1CCc2c(cccc2N2CCN(C[C@H](O)CNc3ccc(Br)cc3)CC2)N1 | 64 µg/mL | 128 µg/mL | 64 µg/mL |  | 256 µg/mL | 330 µM | 64 µg/mL | 128 µg/mL | 128 µg/mL | 128 µg/mL | 128 µg/mL
Cl.O=C1CCc2c(cccc2N2CCN(C[C@@H](O)CNc3ccccc3)CC2)N1 | 128 µg/mL | 128 µg/mL | 128 µg/mL |  | 256 µg/mL | 190 µM | 128 µg/mL | 128 µg/mL | 128 µg/mL | 128 µg/mL | 128 µg/mL
